In ChEMBL document CHEMBL1201862, “PubChem BioAssay data set” (2004):
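Results reflect a 48-hour exposure of cells in 96-well plates to compound at five concentrations. GI50 is the concentration that inhibits growth by half.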 Activity calls are given as the source filed them. Cut-off read from the data, not from the text of the source: active = GI50 up to about 1.1 µM and inactive = higher.

Legend:
Assay in all cases: DTP human tumour cell line panel, 48 h
BT-549 = tested on: BT-549
Malme-3M = tested on: Malme-3M
K562 = tested on: K562
HOP-92 = tested on: HOP-92
OVCAR-5 = tested on: OVCAR-5
SR = tested on: SR
NCI-H460 = tested on: NCI-H460
NCI-H522 = tested on: NCI-H522
LOX IMVI = tested on: LOX IMVI
786-0 = tested on: 786-0
Hs-578T = tested on: Hs-578T
SF-295 = tested on: SF-295
CCRF-CEM = tested on: CCRF-CEM
SK-MEL-28 = tested on: SK-MEL-28
HOP-62 = tested on: HOP-62
NCI/ADR-RES = tested on: NCI/ADR-RES
SK-MEL-2 = tested on: SK-MEL-2
PC-3 = tested on: PC-3
SK-OV-3 = tested on: SK-OV-3
SW-620 = tested on: SW-620

Compound	GI50 (BT-549)	GI50 (Malme-3M)	GI50 (K562)	GI50 (HOP-92)	GI50 (OVCAR-5)	GI50 (SR)	GI50 (NCI-H460)	GI50 (NCI-H522)	GI50 (LOX IMVI)	GI50 (786-0)	GI50 (Hs-578T)	GI50 (SF-295)	GI50 (CCRF-CEM)	GI50 (SK-MEL-28)	GI50 (HOP-62)	GI50 (NCI/ADR-RES)	GI50 (SK-MEL-2)	GI50 (PC-3)	GI50 (SK-OV-3)	GI50 (SW-620)
O=c1c2ccccc2oc2nc3n(c(=O)c12)CCCS3	> 100 µM (inactive)	> 100 µM (inactive)	> 100 µM (inactive)	> 100 µM (inactive)	> 100 µM (inactive)	> 100 µM (inactive)	> 100 µM (inactive)	> 100 µM (inactive)	> 100 µM (inactive)	> 100 µM (inactive)	> 100 µM (inactive)	> 100 µM (inactive)	> 100 µM (inactive)	> 100 µM (inactive)	> 100 µM (inactive)	> 100 µM (inactive)	> 100 µM (inactive)	> 100 µM (inactive)	> 100 µM (inactive)	> 100 µM (inactive)
CCCCCC(=O)Nc1[nH]nnc1C#N	> 100 µM (inactive)	> 100 µM (inactive)	> 100 µM (inactive)	> 100 µM (inactive)	> 100 µM (inactive)	> 100 µM (inactive)	> 100 µM (inactive)	> 100 µM (inactive)	> 100 µM (inactive)	> 100 µM (inactive)	> 100 µM (inactive)	> 100 µM (inactive)	> 100 µM (inactive)	> 100 µM (inactive)	> 100 µM (inactive)	> 100 µM (inactive)	> 100 µM (inactive)	> 100 µM (inactive)	> 100 µM (inactive)	> 100 µM (inactive)
COc1c2ccccc2c(OC)c2nc(C)ccc12	> 79.1 µM (inactive)	> 93.5 µM (inactive)	30.6 µM (inactive)	> 100 µM (inactive)	> 100 µM (inactive)	30.8 µM (inactive)	39.7 µM (inactive)	69.7 µM (inactive)	23.7 µM (inactive)	51.9 µM (inactive)	> 100 µM (inactive)	> 100 µM (inactive)	23.7 µM (inactive)	> 100 µM (inactive)	> 100 µM (inactive)	> 100 µM (inactive)	> 100 µM (inactive)	> 91 µM (inactive)	> 100 µM (inactive)	> 100 µM (inactive)
NC(CS)C(=O)NCCNc1ccc(NCCNC(=O)C(N)CS)c2c1C(=O)c1c(O)ccc(O)c1C2=O (stereo not given)	0.327 µM (active)	0.0653 µM (active)	0.0468 µM (active)	0.00638 µM (active)	0.481 µM (active)	< 0.001 µM (active)	< 0.001 µM (active)	0.0279 µM (active)	0.0185 µM (active)	0.00662 µM (active)	0.137 µM (active)	0.00782 µM (active)	0.00149 µM (active)	0.628 µM (active)	0.00361 µM (active)	0.126 µM (active)	0.427 µM (active)	0.126 µM (active)	0.0124 µM (active)	0.0292 µM (active)
Nc1ccc(Cc2ccc(N)c(C(=O)O)c2)cc1C(=O)O	> 100 µM (inactive)	> 100 µM (inactive)	> 100 µM (inactive)	> 100 µM (inactive)	> 100 µM (inactive)	> 100 µM (inactive)	> 100 µM (inactive)	> 100 µM (inactive)	> 100 µM (inactive)	> 100 µM (inactive)	> 100 µM (inactive)	> 100 µM (inactive)	> 100 µM (inactive)	> 100 µM (inactive)	> 100 µM (inactive)	> 100 µM (inactive)	> 100 µM (inactive)	> 100 µM (inactive)	> 100 µM (inactive)	> 100 µM (inactive)
Cc1cc(C)c(-n2c(C)c(C)c(C#N)c2N)c(C)c1	34.8 µM (inactive)	25.1 µM (inactive)	11 µM (inactive)	19 µM (inactive)	> 100 µM (inactive)	11 µM (inactive)	22.4 µM (inactive)	21 µM (inactive)	19.2 µM (inactive)	41 µM (inactive)	43.8 µM (inactive)	36.4 µM (inactive)	15.3 µM (inactive)	37.1 µM (inactive)	35.8 µM (inactive)	32.3 µM (inactive)	19.5 µM (inactive)	25.8 µM (inactive)	33 µM (inactive)	26.5 µM (inactive)
C#CCCCC(=O)N(C(=O)C[S+]([O-])CC)c1ccccc1 (stereo not given)	> 100 µM (inactive)	> 100 µM (inactive)	> 100 µM (inactive)	> 100 µM (inactive)	> 100 µM (inactive)	> 100 µM (inactive)	> 100 µM (inactive)	> 100 µM (inactive)	> 100 µM (inactive)	> 100 µM (inactive)	> 100 µM (inactive)	> 100 µM (inactive)	> 100 µM (inactive)	> 100 µM (inactive)	> 100 µM (inactive)	> 100 µM (inactive)	> 100 µM (inactive)	> 100 µM (inactive)	> 100 µM (inactive)	> 100 µM (inactive)
CC(=O)Nc1ccc(S(=O)(=O)[N-]C2C(=O)c3ccccc3C(=O)C2[n+]2ccccc2)cc1 (stereo not given)	3.02 µM (inactive)	12.4 µM (inactive)	23.3 µM (inactive)	17.4 µM (inactive)	17.7 µM (inactive)	13.5 µM (inactive)	29.3 µM (inactive)	19.2 µM (inactive)	63.4 µM (inactive)	> 100 µM (inactive)	23.1 µM (inactive)	15.4 µM (inactive)	15.1 µM (inactive)	16.5 µM (inactive)	17.9 µM (inactive)	17.1 µM (inactive)	12.5 µM (inactive)	17.1 µM (inactive)	94.8 µM (inactive)	17.1 µM (inactive)
C=C(C)C(=O)O[C@H]1CC2(CO)O[C@@H]2CC/C(COC(C)=O)=C/C2OC(=O)C(=C)[C@@H]21 (stereo not given in full)	21.8 µM (inactive)	23.4 µM (inactive)	23.9 µM (inactive)	26.4 µM (inactive)	> 100 µM (inactive)	16.9 µM (inactive)	> 100 µM (inactive)	16.4 µM (inactive)	23.9 µM (inactive)	20.2 µM (inactive)	> 92.5 µM (inactive)	> 100 µM (inactive)	15.7 µM (inactive)	23.6 µM (inactive)	> 100 µM (inactive)	45.6 µM (inactive)	52.4 µM (inactive)	56.1 µM (inactive)	> 100 µM (inactive)	19.6 µM (inactive)
O=P1(NCCCl)OCCCN1CCCl (stereo not given) [IFOSFAMIDE]	> 500 µM (inactive)	330 µM (inactive)	373 µM (inactive)	333 µM (inactive)	407 µM (inactive)	> 500 µM (inactive)	394 µM (inactive)	300 µM (inactive)	311 µM (inactive)	> 428 µM (inactive)	> 500 µM (inactive)	374 µM (inactive)	207 µM (inactive)	385 µM (inactive)	341 µM (inactive)	410 µM (inactive)	382 µM (inactive)	> 500 µM (inactive)	379 µM (inactive)	340 µM (inactive)
